Measurements: patent US10239883B2, “4-imidazopyridazin-1-yl-benzamides as BTK inhibitors” (Merck Sharp & Dohme B.V., priority 2011, dated 2019)

Tests used:
Lck enzyme = Lck enzyme (Homo sapiens (Human), UniProt P06239); test: Lck enzyme activity, IMAP fluorescence polarization assay; conditions: 60 min pre-incubation, 6 μM ATP, bin bound in μM
Btk enzyme (His-Btk) = Btk enzyme (His-Btk) (Homo sapiens (Human), UniProt Q06187); test: Btk enzyme activity, IMAP fluorescence polarization assay; conditions: 60 min pre-incubation, 5 μM ATP, bin bound in nM
Chain of Btk enzyme (His-Btk) (Q06187 whole entry): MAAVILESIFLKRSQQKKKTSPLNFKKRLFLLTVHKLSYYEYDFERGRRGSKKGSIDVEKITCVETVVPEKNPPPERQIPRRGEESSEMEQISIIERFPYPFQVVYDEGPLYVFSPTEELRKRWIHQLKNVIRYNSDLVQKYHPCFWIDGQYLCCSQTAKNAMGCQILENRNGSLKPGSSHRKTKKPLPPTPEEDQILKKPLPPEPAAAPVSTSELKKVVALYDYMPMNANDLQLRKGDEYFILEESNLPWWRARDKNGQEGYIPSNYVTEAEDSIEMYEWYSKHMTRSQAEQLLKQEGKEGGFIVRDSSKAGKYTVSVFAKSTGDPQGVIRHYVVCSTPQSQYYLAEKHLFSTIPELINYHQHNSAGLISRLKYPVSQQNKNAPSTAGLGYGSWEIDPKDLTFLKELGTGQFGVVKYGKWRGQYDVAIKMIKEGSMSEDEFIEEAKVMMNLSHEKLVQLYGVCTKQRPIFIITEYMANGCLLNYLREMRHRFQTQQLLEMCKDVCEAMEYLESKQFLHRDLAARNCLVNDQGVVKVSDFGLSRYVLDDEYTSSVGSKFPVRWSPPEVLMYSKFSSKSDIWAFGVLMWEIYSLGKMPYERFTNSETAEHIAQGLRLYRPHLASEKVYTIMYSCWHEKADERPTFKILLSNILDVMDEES

Lyn enzyme = Lyn enzyme (Homo sapiens (Human), UniProt P07948); test: Lyn enzyme activity, IMAP fluorescence polarization assay; conditions: for EC50 Lyn activity values: IMAP, 60 min pre-incubation, 2 μM ATP, bin bound in μM
Chain of Lyn enzyme (P07948 whole entry): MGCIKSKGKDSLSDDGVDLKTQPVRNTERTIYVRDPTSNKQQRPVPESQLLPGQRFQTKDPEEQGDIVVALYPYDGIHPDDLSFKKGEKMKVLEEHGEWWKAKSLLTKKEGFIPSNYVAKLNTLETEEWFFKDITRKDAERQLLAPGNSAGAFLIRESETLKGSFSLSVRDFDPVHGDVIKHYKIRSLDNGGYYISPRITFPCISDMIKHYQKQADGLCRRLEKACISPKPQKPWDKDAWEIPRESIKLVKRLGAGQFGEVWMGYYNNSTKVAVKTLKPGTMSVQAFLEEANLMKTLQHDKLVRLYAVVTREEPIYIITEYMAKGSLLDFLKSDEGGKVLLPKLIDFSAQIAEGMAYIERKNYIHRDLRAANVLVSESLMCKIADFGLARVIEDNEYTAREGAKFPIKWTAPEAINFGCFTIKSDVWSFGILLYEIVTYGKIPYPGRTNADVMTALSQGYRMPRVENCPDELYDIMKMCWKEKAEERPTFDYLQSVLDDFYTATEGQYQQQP

Chain of Lck enzyme (P06239 whole entry): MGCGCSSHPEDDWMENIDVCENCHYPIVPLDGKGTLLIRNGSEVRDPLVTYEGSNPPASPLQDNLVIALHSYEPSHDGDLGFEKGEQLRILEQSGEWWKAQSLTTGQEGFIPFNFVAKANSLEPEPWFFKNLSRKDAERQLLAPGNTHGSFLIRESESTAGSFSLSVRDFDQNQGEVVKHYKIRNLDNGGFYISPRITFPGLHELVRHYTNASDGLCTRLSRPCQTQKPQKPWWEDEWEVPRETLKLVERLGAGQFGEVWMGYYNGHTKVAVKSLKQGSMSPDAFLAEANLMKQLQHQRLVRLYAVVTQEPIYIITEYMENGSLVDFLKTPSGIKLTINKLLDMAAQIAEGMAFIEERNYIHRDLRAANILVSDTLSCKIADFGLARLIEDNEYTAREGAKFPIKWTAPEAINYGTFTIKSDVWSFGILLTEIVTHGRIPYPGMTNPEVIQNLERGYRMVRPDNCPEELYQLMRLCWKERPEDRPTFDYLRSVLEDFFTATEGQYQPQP

EC50 Lck activity values (Lck enzyme) [µM]	EC50 Btk activity values (Btk enzyme (His-Btk)) [nM]	EC50 (Lyn enzyme) [nM]	EC50 Lyn activity values (Lyn enzyme) [µM]	Structure (SMILES)
<1	<100	100 to 1000	<1	CC#CC(=O)N1CCC[C@H]1c1nc(-c2ccc(C(=O)Nc3nccs3)cc2)c2c(N)nccn12 [Example 60, (S)-4-(8-amino-3-(1-but-2-ynoylpyrrolidin-2-yl)imidazo[1,5-a]pyrazin-1-yl)-N-(thiazol-2-yl)benzamide]
<1	–	–	<1	C=CC(=O)N1CCC[C@H]1c1nc(-c2ccc(C(=O)Nc3cc(CCC)ccn3)cc2)c2c(N)nccn12 [Example 125, (S)-4-(3-(1-acryloylpyrrolidin-2-yl)-8-aminoimidazo[1,5-a]pyrazin-1-yl)-N-(4-propylpyridin-2-yl)benzamide]
<1	–	–	<1	C=CC(=O)N1CCC[C@H]1c1nc(-c2ccc(C(=O)Nc3cc(CC)ccn3)cc2)c2c(N)nccn12 [Example 126, (S)-4-(3-(1-acryloylpyrrolidin-2-yl)-8-aminoimidazo[1,5-a]pyrazin-1-yl)-N-(4-ethylpyridin-2-yl)benzamide]
<1	–	–	<1	C=CC(=O)N1CCC[C@H]1c1nc(-c2ccc(C(=O)Nc3cc(-c4ccccc4)ccn3)cc2)c2c(N)nccn12 [Example 133, (S)-4-(3-(1-acryloylpyrrolidin-2-yl)-8-aminoimidazo[1,5-a]pyrazin-1-yl)-N-(4-phenylpyridin-2-yl)benzamide]
